Assay results reported in patent publication US9969694B2, “N-(arylalkyl)-N′-pyrazolyl-urea, thiourea, guanidine and cyanoguanidine compounds as TrkA kinase inhibitors” (Array BioPharma Inc., priority 2012, dated 2018).
Where a name gives a salt, the structure may show the parent alone.

Target: T1, His-tagged recombinant human TrkA (Homo sapiens, UniProt P04629)
T1 construct: 6HIS tagged cytoplasmic domain from Invitrogen, Catalog No. PV3144; purchased Invitrogen PV3144
Test: TrkA Kinase Binding Assay (LanthaScreen Eu)
Conditions: averaged IC50; TR-FRET binding, 60 min, 22° C.; read-out: TrkA Enzyme IC50
Summary of the method: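 TR-FRET tracer displacement: 5 nM His-tagged TrkA cytoplasmic domain with 4 nM Tracer 236, biotinylated anti-His and Eu-streptavidin in pH 7.5 MOPS buffer, 2% DMSO, 60 min at 22 °C. 665/615 nm emission ratio gave percent of control; IC50 from four-parameter fit.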

T1 sequence (P04629 440-796 limits assumed): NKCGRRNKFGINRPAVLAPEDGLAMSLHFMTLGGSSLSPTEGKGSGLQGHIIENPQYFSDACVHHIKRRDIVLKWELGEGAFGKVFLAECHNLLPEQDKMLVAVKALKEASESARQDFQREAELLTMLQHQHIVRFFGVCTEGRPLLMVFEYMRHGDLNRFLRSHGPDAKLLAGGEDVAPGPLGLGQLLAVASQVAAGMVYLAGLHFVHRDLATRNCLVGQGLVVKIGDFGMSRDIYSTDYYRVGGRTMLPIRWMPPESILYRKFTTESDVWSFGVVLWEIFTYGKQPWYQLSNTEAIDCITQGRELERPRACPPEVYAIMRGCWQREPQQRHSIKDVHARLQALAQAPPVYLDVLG

| IC50 [µM] | Structure (SMILES) |
| --- | --- |
| < 0.1 | COCc1ccc(OC(F)F)c(CNC(=O)Nc2c(C)c(OCC3CCNCC3)nn2-c2ccccc2)c1 [Example 105, 1-(2-(difluoromethoxy)-5-(methoxymethyl)benzyl)-3-(4-methyl-1-phenyl-3-(piperidin-4-ylmethoxy)-1H-pyrazol-5-yl)urea] |
| < 0.1 | COCc1ccc(OC(F)(F)F)c(CNC(=O)Nc2c(C)c(OCC3CCN(C)C3)nn2-c2ccccc2)c1 (centres unmarked) [Example 106, 1-(5-(methoxymethyl)-2-(trifluoromethoxy)benzyl)-3-(4-methyl-3-((1-methylpyrrolidin-3-yl)methoxy)-1-phenyl-1H-pyrazol-5-yl)urea hydrochloride] |
| < 0.1 | COCc1ccc(OC(F)F)c(CNC(=O)Nc2c(C)c(OCC3CCN(C)C3)nn2-c2ccccc2)c1 (centres unmarked) [Example 107, 1-(2-(difluoromethoxy)-5-(methoxymethyl)benzyl)-3-(4-methyl-3-((1-methylpyrrolidin-3-yl)methoxy)-1-phenyl-1H-pyrazol-5-yl)urea] |
| < 0.1 | COCc1ccc(OC(F)F)c(CNC(=O)Nc2c(C)c(OC3CC4(C3)CN(C)C4)nn2-c2ccccc2)c1 [Example 108, 1-(2-(difluoromethoxy)-5-(methoxymethyl)benzyl)-3-(4-methyl-3-((2-methyl-2-azaspiro[3.3]heptan-6-yl)oxy)-1-phenyl-1H-pyrazol-5-yl)urea] |
| < 0.1 | COCc1ccc(OC(F)(F)F)c(CNC(=O)Nc2c(C)c(OC[C@H](N)CO)nn2-c2ccccc2)c1 [Example 109, (R)-1-(3-(2-amino-3-hydroxypropoxy)-4-methyl-1-phenyl-1H-pyrazol-5-yl)-3-(5-(methoxymethyl)-2-(trifluoromethoxy)benzyl)urea] |
| < 0.1 | COCc1ccc(OC(F)(F)F)c(CNC(=O)Nc2c(C)c(OC[C@@H]3COCCN3C)nn2-c2ccccc2)c1 [Example 110, (S)-1-(5-(methoxymethyl)-2-(trifluoromethoxy)benzyl)-3-(4-methyl-3-((4-methylmorpholin-3-yl)methoxy)-1-phenyl-1H-pyrazol-5-yl)urea] |
| < 0.1 | COCc1ccc(OC(F)(F)F)c(CNC(=O)Nc2c(C)c(OCC3CCCN(C)C3)nn2-c2ccccc2)c1 (centres unmarked) [Example 111, 1-(5-(methoxymethyl)-2-(trifluoromethoxy)benzyl)-3-(4-methyl-3-((1-methylpiperidin-3-yl)methoxy)-1-phenyl-1H-pyrazol-5-yl)urea] |
| < 0.1 | COCc1ccc(OC(F)(F)F)c(CNC(=O)Nc2c(C)c(OC[C@@H]3CNCCO3)nn2-c2ccccc2)c1 [Example 112, (S)-1-(5-(methoxymethyl)-2-(trifluoromethoxy)benzyl)-3-(4-methyl-3-(morpholin-2-ylmethoxy)-1-phenyl-1H-pyrazol-5-yl)urea] |
| < 0.1 | COCc1ccc(OC(F)(F)F)c(CNC(=O)Nc2c(C)c(OC[C@H]3COCCN3C)nn2-c2ccccc2)c1 [Example 113] |
| < 0.1 | COCc1ccc(OC(F)(F)F)c(CNC(=O)Nc2c(C)c(OC[C@@H]3CN(C)CCO3)nn2-c2ccccc2)c1 [Example 114, (S)-1-(5-(methoxymethyl)-2-(trifluoromethoxy)benzyl)-3-(4-methyl-3-((4-methylmorpholin-2-yl)methoxy)-1-phenyl-1H-pyrazol-5-yl)urea] |
| < 0.1 | Cc1c(OCC2CCN(C)CC2)nn(-c2ccccc2)c1NC(=O)NCc1ccccc1OC(F)(F)F [Example 115, 1-(4-methyl-3-((1-methylpiperidin-4-yl)methoxy)-1-phenyl-1H-pyrazol-5-yl)-3-(2-(trifluoromethoxy)benzyl)urea] |
| < 0.1 | COCc1ccc(-c2ccccc2)c(CNC(=O)Nc2c(C)c(-c3cnn(C)c3)nn2-c2ccccc2)c1 [Example 116, 1-(1′,4-dimethyl-1-phenyl-1H,1′H-[3,4′-bipyrazol]-5-yl)-3-((4-(methoxymethyl)-[1,1′-biphenyl]-2-yl)methyl)urea] |
| < 0.1 | COCc1cc(CNC(=O)Nc2c(C)c(-c3cnn(C)c3)nn2-c2ccccc2)c(C2CCC2)cc1F [Example 117, 1-(2-cyclobutyl-4-fluoro-5-(methoxymethyl)benzyl)-3-(1′,4-dimethyl-1-phenyl-1H,1′H-[3,4′-bipyrazol]-5-yl)urea] |
| 0.1 to 1 | COCc1ccc(CN)c(CNC(=O)Nc2c(C)c(-c3cnn(C)c3)nn2-c2ccccc2)c1 [Example 118, 1-(2-(aminomethyl)-5-(methoxymethyl)benzyl)-3-(1′,4-dimethyl-1-phenyl-1H,1′H-[3,4′-bipyrazol]-5-yl)urea] |
| 0.1 to 1 | COCc1ccc(CNCC(F)(F)F)c(CNC(=O)Nc2c(C)c(-c3cnn(C)c3)nn2-c2ccccc2)c1 [Example 119, 1-(1′,4-dimethyl-1-phenyl-1H,1′H-[3,4′-bipyrazol]-5-yl)-3-(5-(methoxymethyl)-2-(((2,2,2-trifluoroethyl)amino)methyl)benzyl)urea] |
| < 0.1 | COCc1ccc(C2CCC2)c(CNC(=O)Nc2c3c(nn2-c2ccccc2)CSC3)c1 [Example 120, 1-(2-cyclobutyl-5-(methoxymethyl)benzyl)-3-(2-phenyl-4,6-dihydro-2H-thieno[3,4-c]pyrazol-3-yl)urea] |
| < 0.1 | COCc1ccc(C2CCC2)c(CNC(=O)Nc2c3c(nn2-c2ccccc2)CS(=O)(=O)C3)c1 [Example 121, 1-(2-cyclobutyl-5-(methoxymethyl)benzyl)-3-(5,5-dioxido-2-phenyl-4,6-dihydro-2H-thieno[3,4-c]pyrazol-3-yl)urea] |
| < 0.1 | COCc1ccc(C2CCC2)c(CNC(=O)Nc2c(C)c(=O)[nH]n2-c2ccccc2)c1 [Example 122, 1-(2-cyclobutyl-5-(methoxymethyl)benzyl)-3-(4-methyl-5-oxo-2-phenyl-2,5-dihydro-1H-pyrazol-3-yl)urea] |
| < 0.1 | CSCc1ccc(C2CCC2)c(CNC(=O)Nc2c(C)c(-c3cnn(C)c3)nn2-c2ccccc2)c1 [Example 123, 1-(2-cyclobutyl-5-((methylthio)methyl)benzyl)-3-(1′,4-dimethyl-1-phenyl-1H,1′H-[3,4′-bipyrazol]-5-yl)urea] |
| < 0.1 | COCc1ccc(C2CCC2)c(CNC(=O)Nc2c(C)c(OC[C@H]3COC(C)(C)O3)nn2-c2ccccc2)c1 [Example 124, (S)-1-(2-cyclobutyl-5-(methoxymethyl)benzyl)-3-(3-((2,2-dimethyl-1,3-dioxolan-4-yl)methoxy)-4-methyl-1-phenyl-1H-pyrazol-5-yl)urea] |
| < 0.1 | COCc1ccc(C2CCC2)c(CNC(=O)Nc2c(C)c(OC[C@H](O)CO)nn2-c2ccccc2)c1 [Example 125, (R)-1-(2-cyclobutyl-5-(methoxymethyl)benzyl)-3-(3-(2,3-dihydroxypropoxy)-4-methyl-1-phenyl-1H-pyrazol-5-yl)urea] |
| < 0.1 | COCc1ccc(C2CCC2)c(CNC(=O)Nc2c(C)c(OCc3nnc(C)o3)nn2-c2ccccc2)c1 [Example 126, 1-(2-cyclobutyl-5-(methoxymethyl)benzyl)-3-(4-methyl-3-((5-methyl-1,3,4-oxadiazol-2-yl)methoxy)-1-phenyl-1H-pyrazol-5-yl)urea] |
| 0.1 to 1 | CSc1ccc(C2CCC2)c(CNC(=O)Nc2c(C)c(-c3cnn(C)c3)nn2-c2ccccc2)c1 [Example 127, 1-(2-cyclobutyl-5-(methylthio)benzyl)-3-(1′,4-dimethyl-1-phenyl-1H,1H-[3,4′-bipyrazol]-5-yl)urea] |
| 0.1 to 1 | CCSc1ccc(C2CCC2)c(CNC(=O)Nc2c(C)c(-c3cnn(C)c3)nn2-c2ccccc2)c1 [Example 128, 1-(2-cyclobutyl-5-(ethylthio)benzyl)-3-(1′,4-dimethyl-1-phenyl-1H,1′H-[3,4′-bipyrazol]-5-yl)urea] |
| < 0.1 | COCc1cccc(C(Cc2ccccc2)NC(=O)Nc2c(C)c(-c3cnn(C)c3)nn2-c2ccccc2)c1 (centres unmarked) [Example 129, 1-(1′,4-dimethyl-1-phenyl-1H,1′H-[3,4′-bipyrazol]-5-yl)-3-(1-(3-(methoxymethyl)phenyl)-2-phenylethyl)urea] |
| < 0.1 | COCc1ccc(OC(F)(F)F)c(CNC(=O)Nc2c(C)c(OC[C@@H]3CCC(=O)N3)nn2-c2ccccc2)c1 [Example 131, (S)-1-(5-(methoxymethyl)-2-(trifluoromethoxy)benzyl)-3-(4-methyl-3-((5-oxopyrrolidin-2-yl)methoxy)-1-phenyl-1H-pyrazol-5-yl)urea] |
| > 1 | COCc1cccc(C(NC(=O)Nc2c(C)c(-c3cnn(C)c3)nn2-c2ccccc2)C(F)(F)F)c1 (centres unmarked) [Example 132] |

| Structure (SMILES) | IC50 [µM] |
| --- | --- |
| COCc1ccc(OC(F)(F)F)c(CNC(=O)Nc2c(C)c(O[C@H]3C[C@H](N(C)C)C3)nn2-c2ccccc2)c1 [Example 104, 1-(3-((1r,3r)-3-(dimethylamino)cyclobutoxy)-4-methyl-1-phenyl-1H-pyrazol-5-yl)-3-(5-(methoxymethyl)-2-(trifluoromethoxy)benzyl)urea] | < 0.1 |
| COCc1ccc(OC(F)(F)F)c(CNC(=O)Nc2c(C)c(OC3CN4CCC3CC4)nn2-c2ccccc2)c1 (centres unmarked) [Example 130, 1-(5-(methoxymethyl)-2-(trifluoromethoxy)benzyl)-3-(4-methyl-1-phenyl-3-(quinuclidin-3-yloxy)-1H-pyrazol-5-yl)urea] | < 0.1 |
